Common to all, as to format: in vivo
Assay [1] relates to Puccinia recondita f. sp. Tritici. Description: Test B: preventive spray on wheat seedlings, wheat leaf rust disease rating. The settings on record: 100 = 100% disease control, 0 = no control; for Test B disease control rating / pest or weed control at 50 ppm: 50 ppm; for pest or weed control at 50 ppm / pest or weed control at 250 ppm: Puccinia recondita, 192 h. The source says:
(§1) General protocol for preparing test suspensions for Tests A-F: the test compounds were first dissolved in acetone in an amount equal to 3% of the final volume and then suspended at the desired concentration (in ppm) in acetone and purified water (50/50 mix by volume) containing 50 to 250 ppm of the surfactant PEG400 (polyhydric alcohol esters). The resulting test suspensions were then used in Tests A-F.
The test solution was sprayed to the point of run-off on wheat seedlings. The following day the seedlings were inoculated with a spore suspension of Puccinia recondita f. sp. Tritici (the causal agent of wheat leaf rust) and incubated in a saturated atmosphere at 20° C. for 24 h, and then moved to a growth chamber at 20° C. for 7 days, after which time disease ratings were made.
(§2) The test suspension was sprayed to the point of run-off on tomato seedlings. The following day the seedlings were inoculated with a spore suspension of Alternaria solani (the causal agent of tomato early blight) and incubated in a saturated atmosphere at 27° C. for 48 h, and then moved to a growth chamber at 20° C. for 3 days, after which time visual disease ratings were made. A rating of 100 indicates 100% disease control and a rating of 0 indicates no disease control (relative to the controls). A dash (-) indicates the compound was not tested.

The test system of a further assay is Botrytis cinerea. Description: Test E: preventive spray on tomato seedlings, tomato Botrytis disease rating. The settings on record: 100 = 100% disease control, 0 = no control; for Test E disease control rating / pest or weed control at 50 ppm: 50 ppm; for pest or weed control at 50 ppm / pest or weed control at 250 ppm: Botrytis cinerea, 120 h.
From the text: as §1
The test suspension was sprayed to the point of run-off on tomato seedlings. The following day the seedlings were inoculated with a spore suspension of Botrytis cinerea (the causal agent of tomato Botrytis) and incubated in a saturated atmosphere at 20° C. for 48 h, and then moved to a growth chamber at 24° C. for 3 days, after which time visual disease ratings were made.
as §2

For a further assay, the system named is Zymoseptoria tritici. Briefly: Test A: preventive spray on wheat seedlings, wheat leaf blotch disease rating. The settings on record: 100 = 100% disease control, 0 = no control; for Test A disease control rating / pest or weed control at 50 ppm: 50 ppm; for pest or weed control at 50 ppm / pest or weed control at 250 ppm: Zymoseptoria tritici, 456 h.
From the text: as §1
The test solution was sprayed to the point of run-off on wheat seedlings. The following day the seedlings were inoculated with a spore suspension of Zymoseptoria tritici (the causal agent of wheat leaf blotch) and incubated in a saturated atmosphere at 24° C. for 48 h, and then moved to a growth chamber at 20° C. for 17 days, after which time disease ratings were made. […]

For assay [2], the system named is Blumeria graminis f. sp. Tritici. Description: Test C: preventive spray on wheat seedlings, wheat powdery mildew disease rating. The settings on record: 100 = 100% disease control, 0 = no control; for Test C disease control rating / pest or weed control at 50 ppm: 50 ppm; for pest or weed control at 50 ppm / pest or weed control at 250 ppm: Blumeria graminis, 192 h.
From the text: as §1
The test suspension was sprayed to the point of run-off on wheat seedlings. The following day the seedlings were inoculated with a spore dust of Blumeria graminis f. sp. Tritici, (also known as Erysiphe graminis f. sp. Tritici, the causal agent of wheat powdery mildew) and incubated in a growth chamber at 20° C. for 8 days, after which time visual disease ratings were made.
as §2

In the next assay the test system is Alternaria solani. Briefly: Test F: preventive spray on tomato seedlings, tomato early blight disease rating. The settings on record: 100 = 100% disease control, 0 = no control; for Test F disease control rating / pest or weed control at 50 ppm: 50 ppm; for pest or weed control at 50 ppm / pest or weed control at 250 ppm: Alternaria solani, 120 h.
From the text: as §1, §2

The next assay has as its system Phakopsora pachyrhizi. Briefly: Test D: preventive spray on soybean seedlings, Asian soybean rust disease rating. The settings on record: 100 = 100% disease control, 0 = no control; for Test D disease control rating / pest or weed control at 50 ppm: 50 ppm; for pest or weed control at 50 ppm / pest or weed control at 250 ppm: Phakopsora pachyrhizi, 216 h.
From the text: as §1
The test solution was sprayed to the point of run-off on soybean seedlings. The following day the seedlings were inoculated with a spore suspension of Phakopsora pachyrhizi (the causal agent of Asian soybean rust) and incubated in a saturated atmosphere at 22° C. for 24 h and then moved to a growth chamber at 22° C. for 8 days, after which time visual disease ratings were made.
as §2

The text below walks through data of US20240308968A1, “FUNGICIDAL SUBSTITUTED HETEROCYCLES” (FMC Corporation, priority 2021, published 2024).

For `Cc1c(-c2ccc(F)cc2Cl)c(-c2ccn(C)n2)nn(C)c1=O` [Compound 20], the “Test B disease control rating” value in assay [1] is given as 19%. Besides, the “Test E disease control rating” value in the assay on Botrytis cinerea was found to be 33%. The “Test A disease control rating” value in the assay on Zymoseptoria tritici is given as 0%. The “Test C disease control rating” value in assay [2] was determined as 72%. For the same compound, the “Test F disease control rating” value in the assay on Alternaria solani came out at 0%. Moreover, the “Test D disease control rating” value with Phakopsora pachyrhizi is recorded as 0%.

Consider `COc1ccc(Cl)c(-c2nn(C)c(=O)c(C)c2-c2cnccc2C)c1` [Compound 21, 6-(2-chloro-5-methoxyphenyl)-2,4-dimethyl-5-(4-methyl-3-pyridinyl)-3(2H)-pyridazinone], for which the pest or weed control at 50 ppm amounted to 68% in assay [1]; 96% in the assay with Botrytis cinerea; 54% in the assay on Zymoseptoria tritici; 86% in assay [2]; 0% in the assay on Alternaria solani; 25% with Phakopsora pachyrhizi.

`Cc1c(-c2ccc(F)cc2Cl)c(-c2nn(C)cc2Cl)nn(C)c1=O` [Compound 22]: the “Test B disease control rating” value in assay [1] amounted to 93%. For the same compound, the “Test E disease control rating” value in the assay on Botrytis cinerea came to 94%. In the assay with Zymoseptoria tritici, the “Test A disease control rating” value came out at 94%. Further, the “Test C disease control rating” value in assay [2] is on record as 98%. In the assay on Alternaria solani, the “Test F disease control rating” value amounted to 0%. Besides, in the assay on Phakopsora pachyrhizi, the “Test D disease control rating” value is 53%.

Consider `COc1cc(OC)cc(-n2nc(CO)c(=O)c(C)c2-c2ccc(F)cc2F)c1` [Compound 23, 6-(2,4-difluorophenyl)-1-(3,5-dimethoxyphenyl)-3-(hydroxymethyl)-5-methyl-4(1H)-pyridazinone], for which the pest or weed control at 50 ppm in assay [1] was 68%; in the assay on Botrytis cinerea, 46%; with Zymoseptoria tritici, 3%; in assay [2] it was 0%; in the assay on Alternaria solani, 53%; in the assay on Phakopsora pachyrhizi it was 43%.

As for `COC(=O)c1nn(-c2cc(OC)cc(OC)c2)c(-c2ccc(F)cc2F)c(C)c1=O` [Compound 24], the “Test B disease control rating” value in assay [1] is 0%. Moreover, in the assay on Botrytis cinerea, the “Test E disease control rating” value is 0%. In the assay on Zymoseptoria tritici, the “Test A disease control rating” value is given as 8%. Also, the “Test C disease control rating” value in assay [2] was 0%. Also, the “Test F disease control rating” value in the assay with Alternaria solani was 0%. For the same compound, the “Test D disease control rating” value in the assay with Phakopsora pachyrhizi amounted to 0%.

In the case of `COc1cc(OC)cc(-n2nc(CCl)c(=O)c(C)c2-c2ccc(F)cc2F)c1` [Compound 25], the “Test B disease control rating” value in assay [1] is 0%. Further, the “Test E disease control rating” value with Botrytis cinerea is on record as 34%. Further, in the assay on Zymoseptoria tritici, the “Test A disease control rating” value is 18%. In addition, the “Test C disease control rating” value in assay [2] came out at 43%. Also, in the assay with Alternaria solani, the “Test F disease control rating” value amounted to 0%. For the same compound, the “Test D disease control rating” value in the assay on Phakopsora pachyrhizi is recorded as 75%.

Consider `COc1cc(OC)cc(-n2nc(CF)c(=O)c(C)c2-c2ccc(F)cc2F)c1` [Compound 26], for which the “Test B disease control rating” value in assay [1] was 100%. Also, in the assay on Botrytis cinerea, the “Test E disease control rating” value was 98%. The “Test A disease control rating” value in the assay with Zymoseptoria tritici stood at 100%. Further, the “Test C disease control rating” value in assay [2] was 98%. The “Test F disease control rating” value with Alternaria solani was determined as 99%. Also, in the assay on Phakopsora pachyrhizi, the “Test D disease control rating” value is 99%.

For `CCOC(=O)c1nn(-c2cc(OC)cc(OC)c2)c(-c2ccc(F)cc2F)c(C)c1=O` [Compound 28, ethyl 6-(2,4-difluorophenyl)-1-(3,5-dimethoxyphenyl)-1,4-dihydro-5-methyl-4-oxo-3-pyridazinecarboxylate], the pest or weed control at 250 ppm in assay [1] amounted to 83%; in the assay with Botrytis cinerea, 31%; with Zymoseptoria tritici, 0%; in assay [2], 43%; with Alternaria solani, 0%; in the assay with Phakopsora pachyrhizi, 0%.

Turning to `COc1cc(OC)c(Cl)c(-n2nc(CO)c(=O)c(C)c2-c2ccc(F)cc2F)c1` [Compound 30, 1-(2-chloro-3,5-dimethoxyphenyl)-6-(2,4-difluorophenyl)-3-(hydroxymethyl)-5-methyl-4(1H)-pyridazinone], the pest or weed control at 50 ppm in assay [1] stood at 100%; in the assay with Botrytis cinerea, 94%; with Zymoseptoria tritici it was 63%; in assay [2], 98%; in the assay on Alternaria solani, 99%; in the assay on Phakopsora pachyrhizi it was 92%.

For `COc1cc(OC)cc(-n2nc(CC#N)c(=O)c(C)c2-c2ccc(F)cc2F)c1` [Compound 31], in assay [1], the “Test B disease control rating” value turned out to be 0%. For the same compound, in the assay on Botrytis cinerea, the “Test E disease control rating” value was 9%. The “Test A disease control rating” value in the assay on Zymoseptoria tritici worked out at 61%. For the same compound, the “Test C disease control rating” value in assay [2] turned out to be 0%. Also, the “Test F disease control rating” value with Alternaria solani was 0%. The “Test D disease control rating” value in the assay with Phakopsora pachyrhizi worked out at 0%.

Turning to `COc1cc(-n2nc(CO)c(=O)c(C)c2-c2ccc(F)cc2F)cc(OC)c1Cl` [Compound 32, 1-(4-chloro-3,5-dimethoxyphenyl)-6-(2,4-difluorophenyl)-3-(hydroxymethyl)-5-methyl-4(1H)-pyridazinone], the pest or weed control at 50 ppm in assay [1] worked out at 0%; in the assay on Botrytis cinerea, 0%; in the assay on Zymoseptoria tritici, 0%; in assay [2], 0%; in the assay on Alternaria solani, 0%; with Phakopsora pachyrhizi, 25%.

On to `COc1cc(OC)c(Cl)c(-n2nc(C)c(=O)c(C)c2-c2ccc(F)cc2F)c1` [Compound 33, 1-(2-chloro-3,5-dimethoxyphenyl)-6-(2,4-difluorophenyl)-3,5-dimethyl-4(1H)-pyridazinone], for which the pest or weed control at 50 ppm in assay [1] amounted to 100%; with Botrytis cinerea, 98%; in the assay with Zymoseptoria tritici, 100%; in assay [2] it was 100%; in the assay with Alternaria solani, 94%; in the assay on Phakopsora pachyrhizi, 100%.

For the compound `COc1cc(OC)cc(-n2c(-c3ccc(F)cc3Cl)cc(=O)n(C)c2=O)c1` [Compound 34, 6-(2-chloro-4-fluorophenyl)-1-(3,5-dimethoxyphenyl)-3-methyl-2,4(1H,3H)-pyrimidinedione], the pest or weed control at 250 ppm in assay [1] amounted to 86%; in the assay on Botrytis cinerea, 63%; in the assay with Zymoseptoria tritici it was 25%; in assay [2], 0%; with Alternaria solani, 0%; with Phakopsora pachyrhizi, 64%.

On to `COc1cc(OC)c(Cl)c(-n2c(-c3ccc(F)cc3Cl)c(Cl)c(=O)n(C)c2=O)c1` [Compound 35, 5-chloro-1-(2-chloro-3,5-dimethoxyphenyl)-6-(2-chloro-4-fluorophenyl)-3-methyl-2,4(1H,3H)-pyrimidinedione], for which the pest or weed control at 50 ppm in assay [1] is 100%; with Botrytis cinerea it was 94%; with Zymoseptoria tritici, 100%; in assay [2], 98%; with Alternaria solani it was 0%; in the assay with Phakopsora pachyrhizi, 91%.

Regarding `COc1cc(OC)c(Cl)c(-n2c(-c3ccc(F)cc3Cl)cc(=O)n(C)c2=O)c1` [Compound 36, 1-(2-chloro-3,5-dimethoxyphenyl)-6-(2-chloro-4-fluorophenyl)-3-methyl-2,4(1H,3H)-pyrimidinedione], the pest or weed control at 50 ppm in assay [1] is 100%; with Botrytis cinerea, 88%; in the assay with Zymoseptoria tritici, 95%; in assay [2], 92%; in the assay on Alternaria solani, 0%; with Phakopsora pachyrhizi it was 89%.

Broadly, the pest or weed control is how far the test organism was held down. A higher pest or weed control goes with strong suppression.
